This is an account of results in patent US10517889B2, “Modulators of SMAD7 expression” (Ionis Pharmaceuticals, Inc., priority 2017, dated 2019).

The test system of this data set is human SMAD7 mRNA. The data set is described as follows: Antisense inhibition of human SMAD7 mRNA expression in Hep3B cells by 3-10-3 cEt gapmers, 10,000 nM, electroporation (Example 2). It counts as cell-based. To be noted: approximately 24 hours. In short, it runs like this:
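Percent inhibition of SMAD7 mRNA, relative to untreated cells, after ~24 h exposure of electroporated Hep3B cells to 10,000 nM cEt gapmer; levels by qRT-PCR, corrected for total RNA.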

Setting [1] is: Hep3B cells, electroporation with 10,000 nM antisense oligonucleotide, SMAD7 mRNA by RT-PCR (RTS5062), relative to untreated control cells.
Where [2] appears, read: Hep3B cells, electroporation with 10,000 nM antisense oligonucleotide, primer probe set RTS5062, relative to untreated control cells.
Setting [3] is: SMAD7 mRNA, Hep3B cells, electroporation with 10,000 nM antisense oligonucleotide, primer probe set RTS5062, relative to untreated control cells.
[4] abbreviates: Hep3B cells, 10,000 nM antisense oligonucleotide, electroporation, RT-PCR primer probe set RTS5062, relative to untreated control cells.
Where [5] appears, read: Hep3B cells, electroporation, 10,000 nM antisense oligonucleotide, RTS5062, relative to untreated control cells.
The mark [6] stands for this setting: Hep3B cells, electroporation with 10,000 nM antisense oligonucleotide, RTS5062, percent inhibition of SMAD7 mRNA relative to untreated control cells.

Several values for one entry are separate records, joined by “and”; a condition that tells them apart may be missing. Equal values may be shown once. Strand notation (5' to 3'): a small letter for the sugar, then the base; units joined by * are phosphorothioate-linked, units joined directly phosphodiester-linked; [ ] holds rarer units or linkages, { } end groups; capitals alone tell only the bases. k = constrained ethyl (cEt); [5mC] = 5-methylcytosine; d = 2'-deoxy (DNA)

One may read the % Inhibition as the relative decrease from the control value, in per cent. Lower therefore signals a weak effect. For “830041 (antisense kT*k[5mC]*kA*d[5mC]*dT*dT*d[5mC]*d[5mC]*dT*dA*dT*dT*dG*kG*k[5mC]*kT) [compound 830041]”, under setting [1], the “% Inhibition” value is listed as 56%.

Consider “798745 (antisense kG*k[5mC]*kA*dG*d[5mC]*dT*d[5mC]*d[5mC]*dA*dG*d[5mC]*dT*dG*k[5mC]*k[5mC]*kG) [compound 798745]”, for which the “% inhibition of SMAD7 mRNA expression” value under setting [2] worked out at 0%.

In the case of “829901 (antisense kA*kG*k[5mC]*dA*d[5mC]*dG*dG*dG*d[5mC]*dA*dG*d[5mC]*dT*kG*k[5mC]*kT) [compound 829901]”, the “% Inhibition” value under setting [3] is on record as 10%.

Regarding “799065 (antisense kA*kA*kA*dT*dA*dA*dT*dT*dG*dG*dT*dT*d[5mC]*kT*kG*kG) [compound 799065]”, the “% inhibition of SMAD7 mRNA expression” value under setting [2] amounted to 35%.

Consider “800017 (kT*kA*kA*dA*dA*d[5mC]*dA*dG*dT*dA*dT*dG*dT*kG*kT*kT; antisense) [compound 800017]”, for which, under setting [4], the “% Inhibition” value is recorded as 11%.

Take “830069 (kA*kA*kG*dG*dT*dA*dA*dG*d[5mC]*d[5mC]*dA*dG*d[5mC]*kT*k[5mC]*k[5mC]; antisense) [compound 830069]”: the “% Inhibition” value under setting [1] was determined as 51%.

In the case of “799499 (antisense kT*k[5mC]*k[5mC]*dT*dT*dT*dA*dG*dT*dG*dG*d[5mC]*d[5mC]*kT*kA*k[5mC]) [compound 799499]”, the “% inhibition of SMAD7 mRNA expression” value under setting [5] is given as 54%.

For the substance “799865 (kG*kG*kG*dA*d[5mC]*dA*dG*dA*d[5mC]*dT*dG*dT*d[5mC]*k[5mC]*k[5mC]*k[5mC]; antisense) [compound 799865]”, the “% Inhibition” value under setting [1] amounted to 0%.

On to “830211 (kA*kG*kA*d[5mC]*d[5mC]*dG*dG*dA*dA*dG*dT*d[5mC]*dT*kT*kG*kT; antisense) [compound 830211]”, for which, under setting [1], the “% Inhibition” value turned out to be 30%.

Turning to “790533 (kG*kG*k[5mC]*dT*dA*d[5mC]*d[5mC]*dG*dG*d[5mC]*dT*dG*dT*kT*kG*kA; antisense) [compound 790533]”, the “% Inhibition” value under setting [4] was found to be 16%.

On to “798858 (kG*kG*kT*dA*dA*d[5mC]*dT*dG*d[5mC]*dT*dG*d[5mC]*dG*kG*kT*kT; antisense) [compound 798858]”, for which the “% Inhibition” value under setting [4] is recorded as 46%.

On to “799660 (antisense kT*kG*kG*dG*dA*dG*d[5mC]*dA*d[5mC]*dT*dT*d[5mC]*dT*kT*kT*kT) [compound 799660]”, for which the “% inhibition of SMAD7 mRNA expression” value under setting [5] is on record as 35%.

For “800081 (antisense k[5mC]*kG*kG*dT*dA*dT*dT*dA*dA*d[5mC]*d[5mC]*d[5mC]*dG*kG*kG*k[5mC]) [compound 800081]”, the “% Inhibition” value under setting [1] was found to be 0%.

“798829 (kG*kA*kT*dA*dT*d[5mC]*d[5mC]*dA*dG*dA*dG*dA*dG*kG*kG*k[5mC]; antisense) [compound 798829]”: the “% Inhibition” value under setting [1] was found to be 0%.

“799554 (kT*kA*k[5mC]*d[5mC]*dT*dG*dT*dG*dA*dG*d[5mC]*d[5mC]*d[5mC]*kT*kG*kA; antisense) [compound 799554]”: the “% inhibition of SMAD7 mRNA expression” value under setting [5] stood at 0%.

For the substance “799561 (kG*kG*kA*dA*dT*dG*dA*dA*d[5mC]*dT*dT*dT*dG*k[5mC]*k[5mC]*kT; antisense) [compound 799561]”, the “% inhibition of SMAD7 mRNA expression” value under setting [5] was 45%.

For “800095 (antisense kA*kG*kT*dT*dA*d[5mC]*dA*dG*dA*dT*d[5mC]*dT*dT*kT*k[5mC]*kA) [compound 800095]”, under setting [4], the “% Inhibition” value was found to be 47%.

“829865 (antisense kG*kG*k[5mC]*dG*dG*dA*d[5mC]*dT*dT*dG*dA*dT*dG*kA*kA*kG) [compound 829865]”: the “% Inhibition” value under setting [3] is recorded as 30%.

For the substance “799227 (kG*kA*kA*dA*dA*dA*dA*dA*d[5mC]*dA*d[5mC]*d[5mC]*dA*kA*kT*k[5mC]; antisense) [compound 799227]”, under setting [2], the “% Inhibition” value amounted to 2%.

As to “790531 (kT*kG*k[5mC]*dT*dG*dA*dT*dG*dA*dA*d[5mC]*dT*dG*kG*k[5mC]*kG; antisense) [compound 790531]”, under setting [4], the “% Inhibition” value was found to be 8%.

Take “798890 (k[5mC]*kT*kT*d[5mC]*dA*d[5mC]*dA*dA*dA*dG*d[5mC]*dT*dG*kA*kT*k[5mC]; antisense) [compound 798890]”: the “% Inhibition” value under setting [4] was 40%.

As for “799655 (antisense kT*kG*k[5mC]*dA*dG*d[5mC]*dT*dG*dA*dA*dT*dA*dA*k[5mC]*k[5mC]*kT) [compound 799655]”, the “% inhibition of SMAD7 mRNA expression” value under setting [5] worked out at 47%.

With “799569 (k[5mC]*kT*k[5mC]*dT*dA*dG*dG*dT*d[5mC]*d[5mC]*d[5mC]*dT*d[5mC]*kT*kT*kT; antisense) [compound 799569]”, the “% Inhibition” value under setting [6] is given as 24%.

For “800085 (antisense kA*kG*k[5mC]*dA*dG*d[5mC]*d[5mC]*d[5mC]*dT*dG*dT*dA*d[5mC]*kA*k[5mC]*kA) [compound 800085]”, the “% Inhibition” value under setting [1] is given as 37%.

For “799993 (kA*kT*kA*dA*dT*dG*dA*dA*dG*dT*dG*dA*dT*kA*kT*kT; antisense) [compound 799993]”, the “% Inhibition” value under setting [4] was 0%.

On to “829943 (kG*kG*kG*dA*dG*dA*d[5mC]*dT*d[5mC]*d[5mC]*dA*dG*dT*kT*k[5mC]*kG; antisense) [compound 829943]”, for which the “% inhibition of SMAD7 mRNA expression” value (Hep3B cells, electroporation, 10,000 nM, 3-10-3 cEt gapmers targeting SEQ ID NO: 3 and 4) was 43%.

For “799066 (antisense kT*kG*kA*dA*dA*dA*dT*dA*dA*dT*dT*dG*dG*kT*kT*k[5mC]) [compound 799066]”, under setting [2], the “% inhibition of SMAD7 mRNA expression” value stood at 0%.

Turning to “799081 (antisense kT*k[5mC]*kT*d[5mC]*dA*dG*dG*dG*dA*dG*dA*dT*d[5mC]*k[5mC]*kA*kG) [compound 799081]”, the “% Inhibition” value under setting [2] came out at 28%.

For “799691 (antisense kT*k[5mC]*k[5mC]*d[5mC]*dA*dT*dA*dG*dG*dT*dG*dT*dA*k[5mC]*kA*kA) [compound 799691]”, the “% Inhibition” value under setting [6] is 49%.

Turning to “799652 (antisense kA*k[5mC]*kT*d[5mC]*dA*dA*dA*d[5mC]*d[5mC]*dA*dG*dG*dA*k[5mC]*kA*kG) [compound 799652]”, the “% inhibition of SMAD7 mRNA expression” value under setting [5] worked out at 0%.

In the case of “798955 (antisense kT*kT*k[5mC]*dA*dT*dA*dA*dG*d[5mC]*dT*dA*dT*dT*kT*k[5mC]*kT) [compound 798955]”, the “% Inhibition” value under setting [2] is 15%.

For the substance “799043 (kA*kG*k[5mC]*d[5mC]*dG*dT*dG*d[5mC]*dT*d[5mC]*d[5mC]*dT*dG*kG*k[5mC]*kA; antisense) [compound 799043]”, under setting [2], the “% inhibition of SMAD7 mRNA expression” value was 0% and 10%.

For the substance “829834 (kG*kT*kG*dT*dG*dA*d[5mC]*d[5mC]*dG*dA*dT*d[5mC]*d[5mC]*k[5mC]*k[5mC]*kA; antisense) [compound 829834]”, under setting [3], the “% Inhibition” value is 29%.

Regarding “799355 (kA*kG*kG*dA*dA*dA*d[5mC]*d[5mC]*dT*dA*dG*dA*dA*k[5mC]*k[5mC]*kA; antisense) [compound 799355]”, under setting [1], the “% Inhibition” value stood at 23%.

In the case of “829951 (kG*k[5mC]*kT*d[5mC]*d[5mC]*dG*dG*dG*d[5mC]*dA*dG*d[5mC]*d[5mC]*kA*kG*kT; antisense) [compound 829951]”, the “% Inhibition” value under setting [3] was determined as 10%.

On to “799884 (k[5mC]*kT*k[5mC]*d[5mC]*dA*dG*dT*dT*dT*d[5mC]*dT*dA*dG*kA*kG*kG; antisense) [compound 799884]”, for which, under setting [1], the “% Inhibition” value was determined as 0%.

On to “830116 (k[5mC]*kA*k[5mC]*d[5mC]*d[5mC]*dT*dA*dA*dA*d[5mC]*dT*dG*dA*kG*k[5mC]*k[5mC]; antisense) [compound 830116]”, for which the “% Inhibition” value under setting [1] came to 11%.

In the case of “799101 (antisense kG*kG*kA*dA*dA*dA*dA*d[5mC]*d[5mC]*dT*dG*dA*dT*kG*kT*k[5mC]) [compound 799101]”, under setting [2], the “% Inhibition” value was found to be 55%.

Turning to “799038 (kG*kG*kA*d[5mC]*d[5mC]*d[5mC]*d[5mC]*dA*dG*d[5mC]*d[5mC]*dG*d[5mC]*k[5mC]*kA*kG; antisense) [compound 799038]”, the “% Inhibition” value under setting [2] was found to be 19%.

Take “800998 (antisense k[5mC]*k[5mC]*k[5mC]*dG*d[5mC]*dT*d[5mC]*dT*d[5mC]*dA*dG*d[5mC]*d[5mC]*kA*kG*kG) [compound 800998]”: under “SMAD7 mRNA, Hep3B cells, 10,000 nM antisense oligonucleotide, electroporation, primer probe set RTS5062, relative to untreated control cells”, the “% Inhibition” value is 39%.

Take “800046 (kG*kG*k[5mC]*d[5mC]*dA*dA*d[5mC]*dA*dG*dG*dA*dG*dG*kA*kG*kG; antisense) [compound 800046]”: the “% Inhibition” value under setting [1] is listed as 42%.

“798960 (antisense kA*k[5mC]*k[5mC]*d[5mC]*d[5mC]*d[5mC]*dA*dA*d[5mC]*dA*dA*dT*dT*k[5mC]*kT*kT) [compound 798960]”: the “% Inhibition” value under setting [2] stood at 39%.

For “799560 (kG*kG*k[5mC]*dA*d[5mC]*dA*dG*d[5mC]*dT*dT*d[5mC]*dT*dA*kT*kT*k[5mC]; antisense) [compound 799560]”, under setting [5], the “% inhibition of SMAD7 mRNA expression” value is given as 18%.

With “800037 (k[5mC]*kA*k[5mC]*d[5mC]*dA*dG*d[5mC]*dA*dG*d[5mC]*d[5mC]*dT*d[5mC]*kT*kG*kT; antisense) [compound 800037]”, under setting [4], the “% Inhibition” value is 0%.

Consider “799723 (antisense kA*kG*k[5mC]*d[5mC]*dA*dA*d[5mC]*d[5mC]*d[5mC]*dT*dG*dG*d[5mC]*kA*k[5mC]*k[5mC]) [compound 799723]”, for which the “% Inhibition” value under setting [6] amounted to 0%.

For the substance “799824 (antisense kG*kA*kA*dA*dT*dG*dG*d[5mC]*dT*d[5mC]*d[5mC]*dT*dG*k[5mC]*kA*kA) [compound 799824]”, the “% Inhibition” value under setting [6] turned out to be 9%.
